Active and inactive are the calls of the source.
Legend:
[1] = biological target: T1, Heat shock factor protein 1 (Mus musculus, UniProt P38532); experiment: decrease of HSF1-responsive luciferase luminescence – cell-based, NIH3T3, dose retest, confirmation (AID 2382); type: functional;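 note: NIH3T3 fibroblasts with HSF1-driven luciferase reporter stressed by proteasome inhibitor MG132; luminescence from HSF1-driven luciferase expression after 8 hours of MG132 stress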
T1 sequence (P38532 whole entry): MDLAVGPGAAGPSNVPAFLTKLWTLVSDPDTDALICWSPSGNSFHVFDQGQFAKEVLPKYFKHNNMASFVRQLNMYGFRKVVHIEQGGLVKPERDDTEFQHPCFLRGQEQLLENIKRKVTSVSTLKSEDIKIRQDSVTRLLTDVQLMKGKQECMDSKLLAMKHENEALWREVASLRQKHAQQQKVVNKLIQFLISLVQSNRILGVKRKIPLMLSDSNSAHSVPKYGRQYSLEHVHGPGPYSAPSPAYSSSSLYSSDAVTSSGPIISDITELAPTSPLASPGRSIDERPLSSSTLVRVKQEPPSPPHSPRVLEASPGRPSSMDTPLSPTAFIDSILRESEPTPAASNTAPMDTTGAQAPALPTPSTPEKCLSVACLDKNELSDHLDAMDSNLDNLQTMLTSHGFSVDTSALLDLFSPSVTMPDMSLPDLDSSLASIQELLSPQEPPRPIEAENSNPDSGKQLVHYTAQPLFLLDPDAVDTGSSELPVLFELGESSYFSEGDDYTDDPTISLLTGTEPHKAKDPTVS

[2] = viability inhibitors of stage V gametocytes – luminescence, dose response (AID 1117278); type: functional, cell-based;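 note: gametocytes exposed to compound for 24 hours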
[3] = viability loss in human Jurkat cells – cell-based, luminescence, cytotoxicity control for P. falciparum gametocyte viability project, dose response (AID 1117277); type: functional;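 note: potency reflects loss of cellular ATP meaning fewer viable cells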
[4] = biological target: Prothrombin (Homo sapiens, UniProt P00734); experiment: Thrombin 1536 HTS Dose Response Confirmation. [Related pubchem assays: 1046 (Thrombin 1536 HTS; hits were confirmed in this assay)]; type: functional
[5] = biological target: T2, 14-3-3 protein gamma (Homo sapiens, UniProt P61981); experiment: modulators of 14-3-3 gamma client binding – dose response (AID 711); type: functional
T2 sequence (P61981 whole entry): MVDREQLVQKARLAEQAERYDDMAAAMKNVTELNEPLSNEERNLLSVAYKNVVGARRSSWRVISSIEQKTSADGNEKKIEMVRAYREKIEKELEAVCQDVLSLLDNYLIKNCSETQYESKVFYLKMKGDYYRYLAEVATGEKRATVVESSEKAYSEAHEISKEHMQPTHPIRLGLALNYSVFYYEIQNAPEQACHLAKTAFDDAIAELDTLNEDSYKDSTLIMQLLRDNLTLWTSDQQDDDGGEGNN

[6] = biological target: Induced myeloid leukemia cell differentiation protein Mcl-1 (Homo sapiens, UniProt Q07820); experiment: blockers of MCL1 binding to BIM peptide – biochemical, fluorescence polarization, BIM-BH3 peptide, 1536-well, dose response (AID 2217)
[7] = biological target: Bcl-2-like protein 1 (Homo sapiens, UniProt Q07817); experiment: blockers of BCLXL peptide binding – biochemical, fluorescence polarization, 1536-well, selectivity assay for MCL1 inhibitor project, dose response (AID 2218)
[8] = viability loss in THP-1 monocytes – THP-1 cells, cytotoxicity control for Vif-APOBEC3G degradation inhibitor project, dose response (AID 1117359); type: functional; settings: THP-1
[9] = biological target: E3 ubiquitin-protein ligase Mdm2 (Homo sapiens, UniProt Q00987); experiment: MDM2-luc reporter signal enhancers, multi-concentration potency testing, MDM2 ubiquitin-protein ligase inhibitor program, whole-cell format, luminescence detection, 384-well microplate (AID 1394); type: functional;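 note: MDM2 E3 inhibitors raise luminescence so EC50 is for signal enhancement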
[10] = test system: BJ; experiment: BJ-TERT fibroblast viability loss – cell-based, RAS-independent, luminescence, dose response (AID 1933); type: functional; settings: Homo sapiens
[11] = test system: BJ; experiment: cells; type: functional, cell-based; settings: Homo sapiens
[12] = test system: BJ; experiment: BJ-TERT-LT-ST fibroblast viability loss – cell-based, RAS-independent, luminescence, dose response (AID 1935); type: functional; settings: Homo sapiens;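 note: BJ fibroblasts immortalized with TERT plus LT and ST oncogenes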
[13] = DRD fibroblast viability loss – cell-based, non-viral oncogenic, luminescence, dose response (AID 1934); type: functional; settings: Homo sapiens
[14] = biological target: Heat shock protein HSP 90-alpha (Homo sapiens, UniProt P07900); type: functional, organism-based
[15] = test system: INS1; experiment: INS-1E survival protection against cytokine death – cell-based, luminescence, retest, dose response (AID 449756); type: functional; settings: Rattus norvegicus;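 note: cell death triggered by IL-1 beta plus TNF-alpha plus IFN-gamma mixture; protective hits raise ATP signal compared with cytokine alone wells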
[16] = blockers of HIV-1 envelope-mediated cell-cell fusion – cherry-pick, dose response (AID 652057); type: functional, cell-based
[17] = viability loss in CEM21 cells – cell-based, CellTiter-Glo luminescence, cherry-picked, cytotoxicity control for viral fusion inhibitor project, dose response (AID 652042); type: functional;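 note: potency for signal decrease meaning cytotoxicity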
[18] = blockers of HIV-1 ZM109 envelope-driven cell-cell fusion – HeLa effector, CEM target cells, luciferase, cherry-pick, dose response (AID 652058); type: functional, cell-based;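 note: luciferase signal from HIV-1 Env mediated cell-cell fusion of effector and target cells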
[19] = biological target: Paired box protein Pax-8 (Homo sapiens, UniProt Q06710); experiment: PAX8 transcriptional activity inhibition in RMG-I – RMG-I cells, luciferase, cherry-pick, dose response (AID 687027); type: functional, cell-based;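 note: luciferase reporter driven by Pax8 target thyroperoxidase promoter measured by SteadyGlo luminescence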
[20] = off-target signal loss in HeLa-CEM21 co-culture – HeLa F-luc CTL cells, cherry-picked, counter-screen for HIV-1 Env fusion inhibitor project, dose response (AID 652040); type: functional, cell-based;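 note: potency for signal decrease marking cytotoxic or nonspecific inhibition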
[21] = HIV-1 AD8 envelope cell-cell fusion blockers – cherry-pick, dose response (AID 652062); type: functional, cell-based;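 note: luciferase signal from cell-cell fusion driven by HIV-1 clade B AD8 Env; potency is for inhibitors of fusion seen as a drop in luminescence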
[22] = A549 cell cytotoxicity, dose response, cytotoxicity control, plate reader, cherry-pick, antagonist series (AID 743412); type: functional, cell-based
[23] = toxicity toward HepG2 liver cells – cell-based, plate reader, cherry-pick, antagonist series, cytotoxicity control, dose response (AID 743416); type: functional
[24] = blockers of bursicon-stimulated LGR2 cAMP reporter – cell-based, HEK293, CRE-luciferase reporter, cherry pick, set 2, dose response (AID 743343); type: functional;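 note: transfected cells were stimulated with diluted bursicon conditioned medium after compound addition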
[25] = general cell-killing toxicity readout – plate reader, dry powder samples, cytotoxicity control for PAX8 inhibitor project, dose response (AID 743021); type: functional, cell-based
[26] = blockade of melanocortin 4 receptor signaling – cell-based, plate reader, cherry pick, counter-screen for LGR2 antagonist project, dose response (AID 743444); type: functional;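 note: transfected HEK 293 cells stimulated with alpha-MSH peptide; potency of inhibitors of the alpha-MSH evoked signal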
[27] = viability loss in HEK293 cells – cell-based, plate reader, cherry-picked samples, cytotoxicity control, dose response (AID 743446); type: functional
[28] = HPDE-C7 pancreatic duct cell viability loss – fluorescence, HTS (AID 430); type: functional, cell-based; settings: Homo sapiens
[29] = viability loss of HPDE-C7K cells – cell-based, fluorescence, HTS, primary screen (AID 431); type: functional; settings: Homo sapiens
[30] = biological target: T3, Replicative DNA helicase DnaB (Mycobacterium tuberculosis, UniProt P9WMR3); experiment: DnaB intein splicing inhibitors, dose response, biochemical, cell-free fluorescence (AID 449749); type: functional
T3 sequence (P9WMR3 whole entry): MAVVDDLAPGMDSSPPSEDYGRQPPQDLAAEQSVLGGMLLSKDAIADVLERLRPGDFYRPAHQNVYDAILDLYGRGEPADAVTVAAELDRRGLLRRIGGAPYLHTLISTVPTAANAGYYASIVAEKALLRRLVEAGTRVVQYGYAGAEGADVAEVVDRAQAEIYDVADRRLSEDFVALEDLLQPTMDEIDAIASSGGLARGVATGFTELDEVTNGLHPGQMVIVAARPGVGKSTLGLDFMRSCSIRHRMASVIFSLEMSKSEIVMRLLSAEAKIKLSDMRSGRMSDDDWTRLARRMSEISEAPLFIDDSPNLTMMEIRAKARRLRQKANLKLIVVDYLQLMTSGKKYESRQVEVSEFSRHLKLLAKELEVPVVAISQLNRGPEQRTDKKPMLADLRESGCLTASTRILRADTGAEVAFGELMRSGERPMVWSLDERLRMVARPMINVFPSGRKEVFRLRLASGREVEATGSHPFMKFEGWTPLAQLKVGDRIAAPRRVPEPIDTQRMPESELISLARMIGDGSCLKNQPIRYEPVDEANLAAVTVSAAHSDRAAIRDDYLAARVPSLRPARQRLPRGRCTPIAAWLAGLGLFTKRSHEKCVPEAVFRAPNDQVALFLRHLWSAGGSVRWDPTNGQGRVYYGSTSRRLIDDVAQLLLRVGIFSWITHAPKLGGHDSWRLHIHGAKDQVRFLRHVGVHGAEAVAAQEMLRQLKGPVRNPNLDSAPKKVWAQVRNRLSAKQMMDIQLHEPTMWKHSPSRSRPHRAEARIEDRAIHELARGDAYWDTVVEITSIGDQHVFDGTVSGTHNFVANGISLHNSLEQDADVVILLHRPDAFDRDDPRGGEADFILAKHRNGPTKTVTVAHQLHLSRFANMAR

[31] = test system: Vero; experiment: viability of Vero cells under compound – cytotoxicity control for flavivirus capping enzyme inhibitors (AID 588742); type: functional; settings: Chlorocebus sabaeus
[32] = biological target: T4, Protein RecA (Mycobacterium tuberculosis, UniProt P9WHJ3); experiment: Fluorescence Cell-Free Homogeneous Dose Retest to Identify Inhibitors of RecA-Intein Splicing Activity. [Related pubchem assays (depositor defined):AID2097, AID2223, AID489010, AID492950]; type: functional
T4 sequence (P9WHJ3 whole entry): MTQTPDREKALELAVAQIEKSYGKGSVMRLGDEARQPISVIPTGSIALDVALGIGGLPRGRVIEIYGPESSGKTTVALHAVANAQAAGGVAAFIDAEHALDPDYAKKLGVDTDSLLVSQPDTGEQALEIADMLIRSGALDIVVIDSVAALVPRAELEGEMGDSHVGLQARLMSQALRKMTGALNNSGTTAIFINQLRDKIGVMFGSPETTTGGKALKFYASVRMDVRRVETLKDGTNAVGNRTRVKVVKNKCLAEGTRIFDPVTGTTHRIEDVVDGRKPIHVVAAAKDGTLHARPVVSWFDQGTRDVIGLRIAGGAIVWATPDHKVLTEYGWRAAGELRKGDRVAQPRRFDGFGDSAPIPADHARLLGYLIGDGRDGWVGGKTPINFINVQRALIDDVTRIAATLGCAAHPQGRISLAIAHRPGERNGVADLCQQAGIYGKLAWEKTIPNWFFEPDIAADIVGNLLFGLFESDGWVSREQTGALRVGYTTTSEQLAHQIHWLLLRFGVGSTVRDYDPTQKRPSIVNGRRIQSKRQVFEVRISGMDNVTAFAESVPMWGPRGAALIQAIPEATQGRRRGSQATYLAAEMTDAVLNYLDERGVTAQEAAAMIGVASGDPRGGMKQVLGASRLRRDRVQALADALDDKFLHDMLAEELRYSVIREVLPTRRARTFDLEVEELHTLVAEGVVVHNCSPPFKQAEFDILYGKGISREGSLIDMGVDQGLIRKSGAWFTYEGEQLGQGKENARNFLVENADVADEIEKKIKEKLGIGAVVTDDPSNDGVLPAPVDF

Sequence of E3 ubiquitin-protein ligase Mdm2 (Q00987 whole entry): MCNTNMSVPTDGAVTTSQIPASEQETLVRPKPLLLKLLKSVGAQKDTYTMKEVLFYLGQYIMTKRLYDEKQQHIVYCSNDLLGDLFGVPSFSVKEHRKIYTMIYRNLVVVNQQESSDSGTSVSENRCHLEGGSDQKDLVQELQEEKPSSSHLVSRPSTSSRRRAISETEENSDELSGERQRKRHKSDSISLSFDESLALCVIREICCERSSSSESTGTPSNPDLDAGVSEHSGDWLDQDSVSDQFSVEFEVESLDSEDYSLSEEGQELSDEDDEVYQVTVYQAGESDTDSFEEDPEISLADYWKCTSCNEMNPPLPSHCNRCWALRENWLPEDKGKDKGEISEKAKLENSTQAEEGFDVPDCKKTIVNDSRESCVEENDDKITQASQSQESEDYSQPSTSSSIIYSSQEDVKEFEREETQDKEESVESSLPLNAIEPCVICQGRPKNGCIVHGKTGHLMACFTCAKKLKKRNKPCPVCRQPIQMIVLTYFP
Sequence of Paired box protein Pax-8 (Q06710 whole entry, the tested form may be a part): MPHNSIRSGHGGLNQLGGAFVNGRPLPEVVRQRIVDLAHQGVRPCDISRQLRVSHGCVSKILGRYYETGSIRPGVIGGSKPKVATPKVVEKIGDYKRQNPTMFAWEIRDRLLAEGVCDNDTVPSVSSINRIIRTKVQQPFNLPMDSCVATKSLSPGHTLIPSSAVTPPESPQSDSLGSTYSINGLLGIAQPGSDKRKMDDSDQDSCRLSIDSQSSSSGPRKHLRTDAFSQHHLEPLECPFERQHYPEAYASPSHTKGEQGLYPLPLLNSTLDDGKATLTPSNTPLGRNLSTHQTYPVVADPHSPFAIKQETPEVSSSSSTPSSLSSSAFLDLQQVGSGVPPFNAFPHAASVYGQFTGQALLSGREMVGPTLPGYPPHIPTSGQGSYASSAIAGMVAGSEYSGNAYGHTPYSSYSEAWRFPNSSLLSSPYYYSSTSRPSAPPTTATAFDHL
Sequence of Induced myeloid leukemia cell differentiation protein Mcl-1 (Q07820 whole entry): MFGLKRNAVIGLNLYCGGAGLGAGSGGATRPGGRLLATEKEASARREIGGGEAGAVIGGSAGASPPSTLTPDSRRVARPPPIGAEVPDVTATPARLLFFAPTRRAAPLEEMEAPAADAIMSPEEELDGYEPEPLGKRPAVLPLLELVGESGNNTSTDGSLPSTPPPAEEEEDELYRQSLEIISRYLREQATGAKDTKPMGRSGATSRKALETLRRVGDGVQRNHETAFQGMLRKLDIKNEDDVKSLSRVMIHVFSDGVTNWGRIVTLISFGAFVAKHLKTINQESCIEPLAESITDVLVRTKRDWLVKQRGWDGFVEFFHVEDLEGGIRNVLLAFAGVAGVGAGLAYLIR
Sequence of Bcl-2-like protein 1 (Q07817 whole entry): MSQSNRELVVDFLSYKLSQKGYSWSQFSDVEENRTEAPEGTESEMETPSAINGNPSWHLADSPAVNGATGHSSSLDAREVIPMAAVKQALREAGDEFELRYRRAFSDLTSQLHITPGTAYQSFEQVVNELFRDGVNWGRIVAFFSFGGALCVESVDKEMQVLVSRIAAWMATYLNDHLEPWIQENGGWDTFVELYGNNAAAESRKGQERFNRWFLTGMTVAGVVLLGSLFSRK

CN(C)c1nc(OCCNC(=O)COc2ccc(Cl)cc2Cl)nc(N(C)C)n1
EC50 [1]: > 195 µM (not active) | IC50 [2]: > 109 µM (inactive) | IC50 [3]: > 83.3 µM (inactive)

COc1ccc(C(=O)n2ncc(C#N)c2N)cc1
IC50 [4]: 15.1 µM (active)

Cc1ccccc1CS(=O)(=O)Cc1ccc(C(=O)NCc2ccccn2)o1
IC50 [5]: 50 µM (not active)

O=[N+]([O-])c1cc(CN2CCCC2)c2cccnc2c1O
IC50 [6]: 2.7 µM (active) | IC50 [7]: > 109 µM (not active) | CC50 [8]: > 40 µM (active)

CCCCC1(C(=O)OCC)CC(CN2CCOCC2)OC1=O (stereo not given)
IC50 [5]: > 50 µM (not active)

COc1ccc(C)cc1NC(=O)C(OC(=O)CNC(=O)c1cc(C)cc(C)c1)c1ccccc1 (stereo not given)
EC50 [9]: 7.51 µM (not active)

Cc1nn(-c2nc3ccccc3[nH]2)c(=O)c2ccccc12
EC50 [10]: 1.06 µM (active) | EC50 [11]: 1.04 µM (active) | EC50 [12]: 3.5 µM (active) | EC50 [13]: 1.01 µM (active) | AC50 [14]: 4.97 µM (active) | AC50 [15]: 1.3 µM (active) | AC50 [16]: 534 nM (active) | AC50 [17]: 2.08 µM (active) | AC50 [18]: 5.84 µM (active) | AC50 [19]: 1.54 µM (active) | AC50 [20]: 1.36 µM (active) | AC50 [21]: 1.46 µM (active) | AC50 [22]: 2.04 µM (active) | AC50 [23]: 14.8 µM (active) | AC50 [24]: 352 nM (active) | AC50 [25]: 1.72 µM (active) | AC50 [26]: 352 nM (active) | AC50 [27]: 2.33 µM (active) | IC50 [2]: 8.6 µM (active) | IC50 [3]: 2.41 µM (active)

c1ccc2c(-c3nnc4n3CCCCC4)cc(-c3ccncc3)nc2c1
IC50 [4]: > 50 µM (not active)

COc1ccc(N2C(S)=NC(=Nc3ccccc3)C23CCCCC3)cc1
IC50 [4]: > 50 µM (not active)

CCCc1n[nH]c2c1C(c1ccc(Br)s1)C(C#N)=C(N)O2 (stereo not given)
EC50 [28]: 5.48 µM (active) | EC50 [29]: 7 µM (active) | AC50 [30]: 8.54 µM (active) | CC50 [31]: 39.9 µM (active) | EC50 [32]: 7.21 µM (active)

COc1cc2nc(CN(C)Cc3ccc(F)cc3)nc(O)c2cc1OC
IC50 [2]: > 109 µM (inactive) | IC50 [3]: > 83.2 µM (inactive)

CCCN(CCC)CCNc1c(NC2CCN(C(=O)OCC)CC2)c(=O)c1=O
EC50 [9]: 16.1 µM (not active)
